Reference: patent publication US11214564B2, “Compounds with thymine skeleton for use in medicine” (TECHNISCHE UNIVERSITÄT DRESDEN, priority 2019, dated 2022)

Each compound was assayed against HSP27 (Homo sapiens, UniProt P04792) (assay: Aggregation assay: HSP27 chaperone activity on heat-induced aggregation of citrate synthase). Settings: compound 10 μM; 1.44 μM CS, 481 nM HSP27, 43° C., 500 nm.
Chain of HSP27 (P04792 whole entry): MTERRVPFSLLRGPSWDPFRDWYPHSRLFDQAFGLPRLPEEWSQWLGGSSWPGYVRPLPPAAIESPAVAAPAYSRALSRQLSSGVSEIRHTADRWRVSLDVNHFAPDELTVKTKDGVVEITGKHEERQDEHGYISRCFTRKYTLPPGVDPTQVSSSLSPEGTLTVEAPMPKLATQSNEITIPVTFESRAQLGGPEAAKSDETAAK
Type: biochemical
Method: To test how small molecules affect the chaperone activity of HSP27, misfolding and aggregation of citrate synthase (CS), a well-known in vitro client protein of HSP27, was measured. Citrate synthase misfolds and aggregates when exposed to heat shock at 43° C. This heat denaturation is prevented or delayed in the presence of HSP27 (CS+HSP27) (Jakob et al. (1993)). […] The samples were incubated at 43° C. and the aggregation behavior of CS was monitored in a spectrometer (PerkinElmer LS55) at a wavelength of 500 nm. Substances inhibiting HSP27's chaperone activity lead to continued denaturation of the client protein and its aggregation in solution. This inhibition correlates with the strength of the interaction between HSP27 and the test substance, which is related to its binding efficiency.
In the reference experiment BVDU (CS+HSP27+BVDU) was tested at a concentration of 750 μM as previously described (Heinrich et al. (2016)).
The compounds according to the invention were tested at a concentration of 10 μM.
In the case of `Cc1ccc(-c2cccc(CC(=O)Nc3ccc(-n4ccc(=O)[nH]c4=O)cc3)c2)cc1Cl` [Compound 29, 2-(3′-chloro-4′-methyl-[1,1′-biphenyl]-3-yl)-N-(4-(2,4-dioxo-3,4-dihydro-pyrimidin-1(2H)-yl)phenyl) acetamide], the “aggregation value related to the value from reference experiment (CS + HSP27 + BVDU), which was set at 1.0” value (shortened to “aggregation value related to the value”) is reported as 0.8.
With `COc1ccc(-c2cccc(CC(=O)Nc3ccc(-n4cc(Cl)c(=O)[nH]c4=O)cc3)c2)cc1Cl` [Compound 30, N-(4-(5-chloro-2,4-dioxo-3,4-dihydro-pyrimidin-1(2H)-yl)phenyl)-2-(3′-chloro-4′-methoxy-[1,1′-biphenyl]-3-yl)acetamide] the “aggregation value related to the value” value was 0.79.
In the case of `COc1ccc(-c2cccc(CC(=O)Nc3ccc(-n4cc(C)c(=O)[nH]c4=O)cc3)c2)cc1` [Compound 31, 2-(4′-methoxy-[1,1′-biphenyl]-3-yl)-N-(4-(5-methyl-2,4-dioxo-3,4-dihydro-pyrimidin-1(2H)-yl)phenyl) acetamide], the “aggregation value related to the value” value is reported as 0.78.
In the case of `O=C(Cc1cccc(-c2ccc(Cl)c(Cl)c2)c1)Nc1ccc(-n2ccc(=O)[nH]c2=O)cc1F` [Compound 32, 2-(3′,4′-dichloro-[1,1′-biphenyl]-3-yl)-N-(4-(2,4-dioxo-3,4-dihydro-pyrimidin-1(2H)-yl)-2-fluoro-phenyl)acetamide], the “aggregation value related to the value” value is reported as 0.76.
For `Cc1cccc(-c2cccc(CC(=O)Nc3ccc(-n4ccc(=O)[nH]c4=O)cc3)c2)c1` [Compound 33, N-(4-(2,4-dioxo-3,4-dihydro-pyrimidin-1(2H)-yl)phenyl)-2-(3′-methyl-[1,1′-biphenyl]-3-yl) acetamide], the “aggregation value related to the value” value was 0.69.
For `O=C(Nc1ccc(Cn2ccc(=O)[nH]c2=O)cc1)c1cccc(-c2ccc(Cl)c(Cl)c2)c1` [Compound 34, 3′,4′-dichloro-N-(4-((2,4-dioxo-3,4-dihydro-pyrimidin-1(2H)-yl)methyl)phenyl)-[1,1′-biphenyl]-3-carboxamide], the “aggregation value related to the value” value was 1.8.
In the case of `O=C(Nc1ccc(Cn2ccc(=O)[nH]c2=O)cc1)c1cccc(-c2cccc(OC(F)(F)F)c2)c1` [Compound 35, N-(4-((2,4-dioxo-3,4-dihydro-pyrimidin-1(2H)-yl)methyl)phenyl)-3′-(trifluoro-methoxy)-[1,1′-biphenyl]-3-carboxamide], the “aggregation value related to the value” value is reported as 1.55.
In the case of `O=C(Nc1ccc(Cn2ccc(=O)[nH]c2=O)cc1)c1cccc(-c2cccc(Cl)c2)c1` [Compound 36, 3′-chloro-N-(4-((2,4-dioxo-3,4-dihydro-pyrimidin-1(2H)-yl)methyl)phenyl)-[1,1′-biphenyl]-3-carboxamide], the “aggregation value related to the value” value is reported as 1.23.
For `COc1ccc(-c2cccc(C(=O)Nc3ccc(Cn4ccc(=O)[nH]c4=O)cc3)c2)cc1Cl` [Compound 37, 3′-chloro-N-(4-((2,4-dioxo-3,4-dihydro-pyrimidin-1(2H)-yl)methyl)phenyl)-4′-methoxy-[1,1′-biphenyl]-3-carboxamide], the “aggregation value related to the value” value was 0.91.
In the case of `O=C(Cc1cccc(-c2cccc(OC(F)(F)F)c2)c1)Nc1cccc(-n2ccc(=O)[nH]c2=O)c1` [Compound 39, N-(3-(2,4-dioxo-3,4-dihydro-pyrimidin-1(2H)-yl)phenyl)-2-(3′-(trifluoro-methoxy)-[1,1′-biphenyl]-3-yl) acetamide], the “aggregation value related to the value” value is reported as 1.21.
With `O=C(Cc1cccc(-c2ccc(Cl)c(Cl)c2)c1)Nc1cccc(-n2ccc(=O)[nH]c2=O)c1` [Compound 40, 2-(3′,4′-dichloro-[1,1′-biphenyl]-3-yl)-N-(3-(2,4-dioxo-3,4-dihydro-pyrimidin-1(2H)-yl)phenyl) acetamide] the “aggregation value related to the value” value was 1.8.
For `COc1ccc(-c2cccc(CC(=O)Nc3cccc(-n4ccc(=O)[nH]c4=O)c3)c2)cc1Cl` [Compound 41, 2-(3′-chloro-4′-methoxy-[1,1′-biphenyl]-3-yl)-N-(3-(2,4-dioxo-3,4-dihydro-pyrimidin-1(2H)-yl)phenyl) acetamide], the “aggregation value related to the value” value was 1.24.
In the case of `Cc1cccc(-c2cccc(C(=O)Nc3ccc(-n4ccc(=O)[nH]c4=O)cc3)c2)c1` [Compound 42, N-(4-(2,4-dioxo-3,4-dihydro-pyrimidin-1(2H)-yl)phenyl)-3′-methyl-[1,1′-biphenyl]-3-carboxamide], the “aggregation value related to the value” value is reported as 0.66.
`O=C(Nc1ccc(-n2ccc(=O)[nH]c2=O)cc1)c1cccc(-c2cccc(Cl)c2)c1` [Compound 43, 3′-chloro-N-(4-(2,4-dioxo-3,4-dihydro-pyrimidin-1(2H)-yl)phenyl)-[1,1′-biphenyl]-3-carboxamide] was tested, and the “aggregation value related to the value” value was 0.79.
In the case of `COc1ccc(-c2cccc(C(=O)Nc3ccc(-n4ccc(=O)[nH]c4=O)cc3)c2)cc1Cl` [Compound 44, 3′-chloro-N-(4-(2,4-dioxo-3,4-dihydro-pyrimidin-1(2H)-yl)phenyl)-4′-methoxy-[1,1′-biphenyl]-3-carboxamide], the “aggregation value related to the value” value is reported as 0.83.
For `COc1ccc(-c2cccc(C(=O)Nc3ccc(-n4cc(C)c(=O)[nH]c4=O)cc3)c2)cc1Cl` [Compound 45, 3′-chloro-4′-methoxy-N-(4-(5-methyl-2,4-dioxo-3,4-dihydro-pyrimidin-1(2H)-yl)phenyl)-[1,1′-biphenyl]-3-carboxamide], the “aggregation value related to the value” value was 0.88.
In the case of `COc1cccc(-c2cccc(C(=O)Nc3ccc(-n4cc(C)c(=O)[nH]c4=O)cc3)c2)c1` [Compound 46, 3′-methoxy-N-(4-(5-methyl-2,4-dioxo-3,4-dihydro-pyrimidin-1(2H)-yl)phenyl)-[1,1′-biphenyl]-3-carboxamide], the “aggregation value related to the value” value is reported as 0.75.
For `Cc1cn(-c2ccc(NC(=O)c3cccc(-c4cccc(OC(F)(F)F)c4)c3)cc2)c(=O)[nH]c1=O` [Compound 47, N-(4-(5-methyl-2,4-dioxo-3,4-dihydro-pyrimidin-1(2H)-yl)phenyl)-3′-(trifluoro-methoxy)-[1,1′-biphenyl]-3-carboxamide], the “aggregation value related to the value” value was 1.46.
For `O=C(Nc1ccc(-n2cc(Cl)c(=O)[nH]c2=O)cc1)c1cccc(-c2cccc(OC(F)(F)F)c2)c1` [Compound 48, N-(4-(5-chloro-2,4-dioxo-3,4-dihydro-pyrimidin-1(2H)-yl)phenyl)-3′-(trifluoro-methoxy)-[1,1′-biphenyl]-3-carboxamide], the “aggregation value related to the value” value was 0.7.
For `Cc1ccc(-c2cccc(C(=O)Nc3ccc(-n4cc(C)c(=O)[nH]c4=O)cc3)c2)cc1Cl` [Compound 49, 3′-chloro-4′-methyl-N-(4-(5-methyl-2,4-dioxo-3,4-dihydro-pyrimidin-1(2H)-yl)phenyl)-[1,1′-biphenyl]-3-carboxamide], the “aggregation value related to the value” value was 1.16.
For `Cc1ccc(-c2cccc(C(=O)Nc3ccc(-n4ccc(=O)[nH]c4=O)cc3)c2)cc1Cl` [Compound 50, 3′-chloro-N-(4-(2,4-dioxo-3,4-dihydro-pyrimidin-1(2H)-yl)phenyl)-4′-methyl-[1,1′-biphenyl]-3-carboxamide], the “aggregation value related to the value” value was 0.73.
`O=C(Cc1cccc(-c2ccc(Cl)c(Cl)c2)c1)Nc1ccc(-n2cc(Cl)c(=O)[nH]c2=O)cc1` [Compound 51, N-(4-(5-chloro-2,4-dioxo-3,4-dihydro-pyrimidin-1(2H)-yl)phenyl)-2-(3′,4′-dichloro-[1,1′-biphenyl]-3-yl)acetamide] was tested, and the “aggregation value related to the value” value was 0.73.
With `O=C(Cc1cn(-c2ccc(-n3ccc(=O)[nH]c3=O)cc2)nn1)Nc1ccc(Cl)c(Cl)c1` [Compound 52, N-(3,4-dichlorophenyl)-2-(1-(4-(2,4-dioxo-3,4-dihydropyrimidin-1(2H)-yl)phenyl)-1H-1,2,3-triazol-4-yl)acetamide] the “aggregation value related to the value” value was 1.
With `O=C(Cc1cn(-c2ccc(-n3ccc(=O)[nH]c3=O)cc2)nn1)NCc1ccc(Cl)c(Cl)c1` [Compound 53] the “aggregation value related to the value” value was 1.67.
`O=C(NCc1cn(-c2ccc(-n3ccc(=O)[nH]c3=O)cc2)nn1)c1ccc(Cl)c(Cl)c1` [Compound 54, 3,4-Dichloro-N-((1-(4-(2,4-dioxo-3,4-dihydropyrimidin-1(2H)-yl)phenyl)-1H-1,2,3-triazol-4-yl)methyl)benzamide] was tested, and the “aggregation value related to the value” value was 1.42.
With `O=C(Cc1ccc(Cl)c(Cl)c1)NCc1cn(-c2ccc(-n3ccc(=O)[nH]c3=O)cc2)nn1` [Compound 55, 2-(3,4-Dichlorophenyl)-N-((1-(4-(2,4-dioxo-3,4-dihydropyrimidin-1(2H)-yl)phenyl)-1H-1,2,3-triazol-4-yl)methyl)acetamide] the “aggregation value related to the value” value was 1.05.
